Assay results published in patent US20160216259A1, “ISOTHERMAL TITRATION CALORIMETRY METHODS FOR EVALUATION OF THERMODYNAMIC BINDING PROPERTIES” (The Penn State Research Foundation, priority 2015, published 2016).
pKd: −log10 of the molar value. Where “and” joins values, the source holds several entries; their conditions need not be identical. Equal values may be shown once. Read-outs that look alike come from different tables or passages of the source. Marks after values point to notes of the source that are not given here.

Legend:
[1] = for ln K: Tricine pH 8.5, 25° C.
Protocol: The titrations were performed on a NanoITC (TA Instruments, New Castle, Del.) with gold cells with a cell volume of 1 mL. ITC experiments were carried out at 25° C. and the stirring speed was 250 rpm. For the single independent binding experiment, ligand of 20 mM in 100 μL syringe and for the competitive binding site and two independent binding sites model, ligand of 10 mM in 250 μL syringe were used. The injection rate was varied 1.7-10 μL/min for the continuous injection mode under setting tab in ITCRun software. […] The first data point for the incremental injection mode and data for the initial 10 μL of injection for the continuous injection mode is excluded for data fitting with binding models due to reduced amount of the heat flow.
Binding of Ba^2+ and EDTA were performed and analyzed with the single independent binding site model in order to obtain the confidence intervals depending on the number of injections.
The number of injections for the incremental injection experiment was 36 with an injection volume of 2.5 μL. An injection rate of 1.7 μL/min was utilized in the continuous injection experiment. The fit for the continuous injection method was done after 0.1 mM of ligand had been injected.
The experimental time for incremental injection mode experiment was ˜6.5 h (36 injections), while the continuous injection experiment completed within ˜1 h.

[2] = Tricine pH 8.5, 25° C.; for ln K1 / ln K2: EDTA/DPTA mixture, 99% CI in parentheses; for ln K: real-time evaluation from data at inflection points, continuous 7.2 μL/min
Protocol: The pH of these solutions was adjusted to 8.5 with 1 M NaOH solution. For the single independent binding site and two independent binding sites experiments, Tricine (20 mM) was used as a buffer solution. For the competitive binding site experiment, HEPES (20 mM) was used as a buffer solution.
The titrations were performed on a NanoITC (TA Instruments, New Castle, Del.) with gold cells with a cell volume of 1 mL. ITC experiments were carried out at 25° C. and the stirring speed was 250 rpm. For the single independent binding experiment, ligand of 20 mM in 100 μL syringe and for the competitive binding site and two independent binding sites model, ligand of 10 mM in 250 μL syringe were used. The injection rate was varied 1.7-10 μL/min for the continuous injection mode under setting tab in ITCRun software. During the equilibration, mass transfer of ligand at the tip of the injection syringe reduces the integrated heat of the first injection. The first data point for the incremental injection mode and data for the initial 10 μL of injection for the continuous injection mode is excluded for data fitting with binding models due to reduced amount of the heat flow.
By changing the concentration of EDTA and DPTA in the mixture, the various binding stoichiometry of the receptor, n and m, were simulated. […] The number of injections for the incremental injection mode experiment is 40 with an injection volume of 6 μL. Injection rate for the continuous injection mode is 7.2 μL/min.
The fit for the continuous injection method was done after 0.05 mM of ligand was injected. […] The positive peaks of the binding isotherms in the raw data (top) represent the exothermic heat of binding.

[3] = 1 mM EDTA + 4 mM BaCl2, HEPES pH 8.5, 25° C.
Protocol: The pH of these solutions was adjusted to 8.5 with 1 M NaOH solution. […] For the competitive binding site experiment, HEPES (20 mM) was used as a buffer solution.
Injection rate for the continuous injection mode is 10 μL/min.
The fit for the continuous injection method was done after 0.1 mM of ligand was injected. […] The positive peaks of the binding isotherms in the raw data (top) represent the exothermic heat of binding.

avidin [4] = biological target: T1, avidin (Gallus gallus, UniProt P02701); assay: Continuous injection ITC, single independent binding of lipoic acid to avidin; details: 1 mM lipoic acid, continuous 0.1 mL/h into 25 μM avidin, 25° C., pH 6.6
T1 construct: purchased Sigma-Aldrich
T1 sequence (P02701 25-152): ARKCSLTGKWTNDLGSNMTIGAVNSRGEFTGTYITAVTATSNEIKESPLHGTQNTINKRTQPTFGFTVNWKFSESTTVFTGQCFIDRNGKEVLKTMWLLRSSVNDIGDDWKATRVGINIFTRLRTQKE
Protocol: (§1) The molecular weight of avidin (12.8 units per mg protein) was used as 66000 g/mol. […] […] HEPES (1 mM) was used as the buffer solution.
(§2) The continuous titrations were performed on a VP-ITC (Malvern Instruments, Westborough, Mass.) with a cell volume of 1.4 mL. The incremental titrations were performed on a NanoITC (TA Instruments, Lindon, Utah) with a cell volume of 1 mL. ITC experiments were carried out at 25° C. and the stirring speed was 270 rpm and 250 rpm for the continuous titration and incremental titration, respectively. For manipulating injection rate, a PHD 2000 syringe pump (Harvard Apparatus, Holliston, Mass.) was connected to the injection syringe of the VP-ITC.
Injection rate for the continuous injection mode was 0.1 mL/h. The fit for the continuous injection method was done after 12 μM of ligand was injected. […] Injection rate for the continuous injection mode is 0.1 mL/h. The fit for the continuous injection method was done after […] of ligand was injected.

avidin [5] = biological target: T1, avidin; details: reported; pH 6.8; cited from earlier work
avidin [6] = biological target: T1, avidin; assay: Continuous injection ITC, binding of desthiobiotin to avidin, single independent binding site model; details: 0.5 mM desthiobiotin, continuous 25 μL/h into 12.5 μM avidin, 25° C., pH 7.2
Protocol: as §1, §2

avidin [7] = biological target: T1, avidin; assay: Continuous injection ITC, competitive binding of desthiobiotin to avidin mixed with lipoic acid; details: pH 6.6
Protocol: as §1, §2
[…] The fit for the continuous injection method was done after 12 μM of ligand was injected. […] […] The fit for the continuous injection method was done after […] of ligand was injected.

[8] = continuous injection 7.2 μL/min
[9] = incremental, 40 injections of 6 μL
[10] = apparent, 12.5 μM avidin mixed with 0.75 mM lipoic acid, 25° C.

What does the source list for `[Ba+2].[Cl-].[Cl-]` [BaCl2, barium chloride]?
K2 ([1]; Ba^2+ and EDTA, obtained independently by incremental injection, input for the competitive model, listed as Ba^2+): 1.36e+06 M⁻¹; ln K ([1]; continuous injection 1.7 μL/min, 99% confidence interval in parentheses): 14.15 (14.13, 14.16) and 14.11 (14.09, 14.03) and 13.73 (13.71, 13.75); ln K ([1]; incremental injection, 9 injections, 99% confidence interval in parentheses): 14.26 (13.5, 16.7) and 14.14 (13.0, 16.5) and 13.99 (13.4, 14.6); ln K ([1]; incremental injection, 18 injections, 99% confidence interval in parentheses): 14.07 (13.6, 14.6) and 14.05 (13.8, 14.5) and 13.88 (13.3, 14.8); ln K ([1]; incremental injection, 36 injections, 99% confidence interval in parentheses): 14.07 (13.8, 14.4) and 14.13 (13.9, 14.4) and 14.02 (13.8, 14.3); ln K ([1]; real-time evaluation from data at inflection point, continuous injection 1.7 μL/min): 14.22

Which results are given for `O.O.O.O.O=[N+]([O-])[O-].O=[N+]([O-])[O-].[Ca+2]` [Ca(NO3)2, Calcium nitrate tetrahydrate]?
ln K1 [2, 8]: 18.11 (18.07, 18.15); ln K2 [2, 8]: 11.27 (11.25, 11.30); ln K1 [2, 9]: 19.50 (18.98, 20.33); ln K2 [2, 9]: 11.42 (11.14, 11.69); ln K ([2]; association of Ca^2+ and DPTA): 12.24^g; ln K ([2]; association of Ca^2+ and EDTA): 18.98^f; ln K ([3]; continuous injection 10 μL/min, 99% CI in parentheses): 20.535 (20.52, 20.55); ln K ([3]; incremental, 20 injections of 10 μL, 99% CI in parentheses): 20.47 (20.3, 20.6); ln K ([3]; real-time evaluation from data at inflection point, continuous injection 10 μL/min): 20.64

With `O=C(O)CCCCC1CCSS1` (stereo not drawn) [Lipoic acid, α-Lipoic acid] as the compound, how does the ΔH1 (avidin [4]) read?
The ΔH1 was -9.95 kcal/mol.

What about the pKd (avidin [4]; read-out: Kd1) of the same compound?
Its pKd is 6.28.

And the pKd (avidin [5])?
Its pKd is 6.15.

Which ΔH (avidin [6]) does the source give for `C[C@@H]1NC(=O)N[C@@H]1CCCCCC(=O)O` [desthiobiotin, d-desthiobiotin] here?
The ΔH was -17.55 kcal/mol.

And the m (avidin [7]; 0.5 mM desthiobiotin, 25 μL/h into 12.5 μM avidin mixed with 0.75 mM lipoic acid, 25° C.)?
The m was 0.294.

And the “Kd,app” value (avidin [7]; [10])?
Its value is 1.04 nM.

And the ΔHapp (avidin [7]; [10])?
The ΔHapp was -9.74 kcal/mol.

What about the ΔH (avidin [7]; evaluated by competitive binding method from lipoic acid and apparent parameters) of the same compound?
Its ΔH is -19.7 kcal/mol.
